The test system of series [1] is HepG-2 liver cancer cell line. Put plainly: Anti-proliferative activity (MTT / SRB assay), HepG-2. The class given is cell-based, human. The following applies: Homo sapiens, HepG2; HepG-2; mean of three separate experiments. As to the method: (§1) The new quinoxaline derivatives of the five series: 6, 7, 8, 9, and 10 were evaluated for their potential anti-proliferative activity against two liver cancer cell lines (HepG-2 and HuH-7) obtained from the American Type Culture Collection.
Background: The SRB assay estimates cell density from bound dye.

Series [2] relates to HuH-7 liver cancer cell line. Put plainly: Anti-proliferative activity (MTT / SRB assay), HuH-7. The class given is cell-based, human. The settings on record: Homo sapiens, mean of three separate experiments. As to the method:
as §1

Another series concerns Bax. Put plainly: Apoptotic marker level (Bax) in HepG-2 cells. The class given is cell-based, human. The settings on record: control 24.37 pg/ml. As for the experimental part: (§2) The method was performed in detail as previously explained ([Eliaa et al., 2020]).
The next series has as its system Bcl-2. Nature of the series: Anti-apoptotic marker level (Bcl-2) in HepG-2 cells. The settings on record: control 5.048 pg/ml. It is filed as cell-based, human. As for the experimental part: as §2
The target in a further series is HDAC1 (Homo sapiens, UniProt Q13547). Put plainly: Histone deacetylase inhibition, homogeneous fluorescence release assay.
Sequence of HDAC1 (Q13547 whole entry): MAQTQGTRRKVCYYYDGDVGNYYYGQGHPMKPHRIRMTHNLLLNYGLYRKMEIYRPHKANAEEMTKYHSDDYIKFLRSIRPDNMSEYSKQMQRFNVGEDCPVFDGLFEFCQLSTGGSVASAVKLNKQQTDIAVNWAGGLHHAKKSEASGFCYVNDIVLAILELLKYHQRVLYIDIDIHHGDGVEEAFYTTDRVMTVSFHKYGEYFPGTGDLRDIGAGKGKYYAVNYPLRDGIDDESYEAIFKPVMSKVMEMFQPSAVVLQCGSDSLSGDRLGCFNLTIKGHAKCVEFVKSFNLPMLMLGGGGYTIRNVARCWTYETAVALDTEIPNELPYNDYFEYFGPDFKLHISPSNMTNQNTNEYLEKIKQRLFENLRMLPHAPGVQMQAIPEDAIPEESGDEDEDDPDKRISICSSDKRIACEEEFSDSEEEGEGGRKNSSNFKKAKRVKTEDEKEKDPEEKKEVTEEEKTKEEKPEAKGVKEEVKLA
Another series deals with HDAC4 (Homo sapiens, UniProt P56524). The series is described as above.
Sequence of HDAC4 (P56524 whole entry): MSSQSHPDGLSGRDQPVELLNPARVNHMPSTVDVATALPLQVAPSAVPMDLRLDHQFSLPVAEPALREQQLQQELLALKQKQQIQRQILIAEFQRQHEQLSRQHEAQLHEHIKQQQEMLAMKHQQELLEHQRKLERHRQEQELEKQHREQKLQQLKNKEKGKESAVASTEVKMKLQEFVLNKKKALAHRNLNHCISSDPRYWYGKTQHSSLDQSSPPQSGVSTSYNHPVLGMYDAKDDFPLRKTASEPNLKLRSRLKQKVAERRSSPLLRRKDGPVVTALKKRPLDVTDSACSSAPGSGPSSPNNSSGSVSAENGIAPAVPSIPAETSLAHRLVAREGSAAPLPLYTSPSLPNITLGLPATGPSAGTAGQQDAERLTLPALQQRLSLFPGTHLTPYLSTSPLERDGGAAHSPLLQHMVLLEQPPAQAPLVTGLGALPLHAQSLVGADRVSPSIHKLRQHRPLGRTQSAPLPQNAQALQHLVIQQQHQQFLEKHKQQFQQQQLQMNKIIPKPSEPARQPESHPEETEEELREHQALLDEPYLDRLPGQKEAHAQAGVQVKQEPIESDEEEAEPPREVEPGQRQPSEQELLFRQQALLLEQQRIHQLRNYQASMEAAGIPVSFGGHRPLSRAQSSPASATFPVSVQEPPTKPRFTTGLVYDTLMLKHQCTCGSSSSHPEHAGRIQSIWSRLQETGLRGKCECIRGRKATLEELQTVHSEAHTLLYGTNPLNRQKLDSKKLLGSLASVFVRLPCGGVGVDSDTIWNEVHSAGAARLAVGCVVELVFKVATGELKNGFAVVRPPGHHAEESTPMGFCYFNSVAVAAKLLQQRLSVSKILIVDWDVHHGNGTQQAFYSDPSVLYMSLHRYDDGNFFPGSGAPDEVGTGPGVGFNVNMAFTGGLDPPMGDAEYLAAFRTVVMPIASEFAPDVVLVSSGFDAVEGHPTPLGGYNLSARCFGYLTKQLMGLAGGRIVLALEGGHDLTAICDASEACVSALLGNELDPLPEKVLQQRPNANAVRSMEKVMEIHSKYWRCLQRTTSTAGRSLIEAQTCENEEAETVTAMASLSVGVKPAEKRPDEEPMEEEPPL
The next series concerns the target T1, HDAC6 (Homo sapiens, UniProt Q9UBN7).
T1 sequence (Q9UBN7 1-1215): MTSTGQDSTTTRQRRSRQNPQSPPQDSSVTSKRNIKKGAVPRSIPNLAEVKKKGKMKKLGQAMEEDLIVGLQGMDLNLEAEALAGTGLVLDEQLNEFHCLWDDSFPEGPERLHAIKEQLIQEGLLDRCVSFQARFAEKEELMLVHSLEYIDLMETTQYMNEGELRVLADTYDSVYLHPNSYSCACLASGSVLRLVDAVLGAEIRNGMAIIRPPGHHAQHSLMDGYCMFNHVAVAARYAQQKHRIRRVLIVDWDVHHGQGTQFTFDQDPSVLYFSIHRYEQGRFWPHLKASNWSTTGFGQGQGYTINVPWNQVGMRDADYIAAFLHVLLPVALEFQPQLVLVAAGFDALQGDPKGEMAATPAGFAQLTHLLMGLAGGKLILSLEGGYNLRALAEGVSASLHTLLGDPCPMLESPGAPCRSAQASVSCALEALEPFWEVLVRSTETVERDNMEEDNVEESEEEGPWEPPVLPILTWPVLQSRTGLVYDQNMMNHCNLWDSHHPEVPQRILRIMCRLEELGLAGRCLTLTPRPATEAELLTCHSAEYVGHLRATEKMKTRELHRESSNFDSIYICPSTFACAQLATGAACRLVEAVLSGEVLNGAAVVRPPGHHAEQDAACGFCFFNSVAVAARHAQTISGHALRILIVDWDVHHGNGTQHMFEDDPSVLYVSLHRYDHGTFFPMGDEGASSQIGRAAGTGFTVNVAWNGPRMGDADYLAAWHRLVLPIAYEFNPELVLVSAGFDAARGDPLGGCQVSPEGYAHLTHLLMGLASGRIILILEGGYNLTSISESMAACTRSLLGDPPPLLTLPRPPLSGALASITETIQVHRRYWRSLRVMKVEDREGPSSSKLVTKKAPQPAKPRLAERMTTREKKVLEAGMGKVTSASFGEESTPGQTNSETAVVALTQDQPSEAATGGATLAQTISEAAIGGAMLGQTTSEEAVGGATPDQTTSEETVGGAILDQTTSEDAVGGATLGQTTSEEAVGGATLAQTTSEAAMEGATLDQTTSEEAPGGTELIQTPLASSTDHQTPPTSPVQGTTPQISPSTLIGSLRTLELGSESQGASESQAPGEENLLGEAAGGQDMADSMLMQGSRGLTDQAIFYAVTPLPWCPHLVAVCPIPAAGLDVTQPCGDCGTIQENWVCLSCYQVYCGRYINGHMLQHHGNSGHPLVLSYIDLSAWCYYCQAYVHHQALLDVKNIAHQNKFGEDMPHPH
The description is as above.

Series [3] concerns HepG-2 and HuH-7 liver cancer cell lines. Nature of the series: Anti-proliferative activity, statements covering both cell lines. It is filed as cell-based, human. The settings on record: class by IC50 on HepG-2 and HuH-7. As to the method:
as §1

The values below come from PMC8493129, “Design and Synthesis of New Quinoxaline Derivatives as Potential Histone Deacetylase Inhibitors Targeting Hepatocellular Carcinoma: In Silico, In Vitro, and SAR Studies” (Frontiers in Chemistry, 2021).

Usually IC50 stands for the midpoint of a concentration-inhibition curve.

Turning to `Clc1nc2ccccc2nc1NN=Cc1ccccc1` [Compound 6 a, 2-(2-Benzylidenehydrazinyl)-3-chloroquinoxaline], the values for the IC50 in series [1] and in series [2] were 14.3 µM and 18.2 µM, respectively.

`Clc1ccccc1C=NNc1nc2ccccc2nc1Cl` [Compound 6 b, 2-Chloro-3-(2-(2-chlorobenzylidene)hydrazinyl)quinoxaline]: the IC50 in series [1] came to 15.8 µM; in series [2] it was 18.7 µM.

As for `Clc1ccc(C=NNc2nc3ccccc3nc2Cl)c(Cl)c1` [Compound 6 d, 2-Chloro-3-(2-(2,4-dichlorobenzylidene)hydrazinyl)quinoxaline], the IC50 was 6.16 µM in series [1]; 9.47 µM in series [2]; 3.52 µM against HDAC1; 3.25 µM at HDAC4; 4.28 µM against HDAC6. Also, in the series with Bax, the “Bax” value came to 179.2 pg/mL. Also, the “Bcl-2” value in the series on Bcl-2 turned out to be 2.711 pg/mL.

Take `Clc1cccc(Cl)c1C=NNc1nc2ccccc2nc1Cl` [Compound 6 e, 2-Chloro-3-(2-(2,6-dichlorobenzylidene)hydrazinyl)quinoxaline]: the IC50 in series [1] was found to be 13.5 µM; in series [2], 17.5 µM.

Take `COc1ccccc1C=NNc1nc2ccccc2nc1Cl` [Compound 6 f, 2-Chloro-3-(2-(2-methoxybenzylidene)hydrazinyl)quinoxaline]: the IC50 in series [1] worked out at 6.63 µM; in series [2] it was 8.52 µM; on HDAC1, 3.29 µM; on HDAC4 it was 3.44 µM; against HDAC6, 5.32 µM. The “Bax” value with Bax turned out to be 185.7 pg/mL. In addition, in the series with Bcl-2, the “Bcl-2” value is 2.705 pg/mL.

With `COc1ccc(C=NNc2nc3ccccc3nc2Cl)cc1OC` [Compound 6 g, 2-Chloro-3-(2-(3,4-dimethoxybenzylidene)hydrazinyl)quinoxaline], the IC50 in series [1] was found to be 2.16 µM; in series [2] it was 3.05 µM; on HDAC1 it was 2.17 µM; on HDAC4 it was 1.64 µM; at HDAC6, 3.81 µM. Besides, the “Bax” value in the series with Bax was 247.5 pg/mL. Besides, the “Bcl-2” value in the series on Bcl-2 came to 1.687 pg/mL.

Take `COc1cc(C=NNc2nc3ccccc3nc2Cl)cc(OC)c1OC` [Compound 6 h, 2-Chloro-3-(2-(3,4,5-trimethoxybenzylidene)hydrazinyl)quinoxaline]: the IC50 in series [1] was 11.8 µM; in series [2], 14.7 µM.

With `O=[N+]([O-])c1cccc(C=NNc2nc3ccccc3nc2Cl)c1` [Compound 6 i, 2-Chloro-3-(2-(3-nitrobenzylidene)hydrazinyl)quinoxaline], the IC50 worked out at 63.9 µM in series [1] and 65.7 µM in series [2].

With `O=[N+]([O-])c1ccc(C=NNc2nc3ccccc3nc2Cl)cc1` [Compound 6 j, 2-Chloro-3-(2-(4-nitrobenzylidene)hydrazinyl)quinoxaline], the values for the IC50 in series [1] and in series [2] were 15.9 µM and 25.8 µM, respectively.

Turning to `Oc1ccccc1C=NNc1nc2ccccc2nc1Cl` [Compound 6 k, 2-((2-(3-Chloroquinoxalin-2-yl)hydrazono)methyl)phenol], the IC50 in series [1] was 7.71 µM; in series [2] it was 6.52 µM; against HDAC1, 4.18 µM; against HDAC4, 3.81 µM; on HDAC6, 6.29 µM. In the series with Bax, the “Bax” value came out at 164.3 pg/mL. Besides, the “Bcl-2” value with Bcl-2 came out at 2.914 pg/mL.

With `CN(C)c1ccc(C=NNc2nc3ccccc3nc2Cl)cc1` [Compound 6 l, 4-((2-(3-Chloroquinoxalin-2-yl)hydrazono)methyl)-N,N-dimethylaniline], the IC50 in series [1] was 5.39 µM; in series [2], 9.27 µM; at HDAC1 it was 3.29 µM; against HDAC4, 2.79 µM; on HDAC6, 4.09 µM. For the same compound, the “Bax” value with Bax came to 219.7 pg/mL. In addition, the “Bcl-2” value with Bcl-2 was found to be 2.519 pg/mL.

For `CC(=NNc1nc2ccccc2nc1Cl)c1ccccc1` [Compound 7 a, 2-Chloro-3-(2-(1-phenylethylidene)hydrazinyl)quinoxaline], the values for the IC50 in series [1] and in series [2] were 28.5 µM and 37.1 µM, respectively.

In the case of `O=C1Nc2ccccc2/C1=N\Nc1nc2ccccc2nc1Cl` [Compound 9, 2-(2-(3-Chloroquinoxalin-2-yl)hydrazono)indolein-3-one], the IC50 in series [1] worked out at 11.6 µM; in series [2] it was 16.4 µM. The “cytotoxic (anti-proliferative) activity class” value in series [3] is given as “strong (11–20 (strong))”.

Consider `COc1nc2ccccc2nc1NN=Cc1ccc(Cl)cc1` [Compound 10 a, 2-(2-(4-Chlorobenzylidene)hydrazinyl)-3-methoxyquinoxaline], for which the results for the IC50 in series [1] and in series [2] were 53.9 µM and 57.8 µM, respectively.

For `COc1nc2ccccc2nc1NN=Cc1ccc(Cl)cc1Cl` [Compound 10 b, 2-(2-(2,4-Dichlorobenzylidene)hydrazinyl)-3-methoxyquinoxaline], the IC50 worked out at 32.1 µM in series [1] and 35.2 µM in series [2].

For `COc1nc2ccccc2nc1NN=Cc1c(Cl)cccc1Cl` [Compound 10 c, 2-(2-(2,6-Dichlorobenzylidene)hydrazinyl)-3-methoxyquinoxaline], the IC50 amounted to 60.5 µM in series [1] and 65.3 µM in series [2].

For the compound `COc1ccccc1C=NNc1nc2ccccc2nc1OC` [Compound 10 d, 2-Methoxy-3-(2-(2-methoxybenzylidene)hydrazinyl)quinoxaline], the values for the IC50 in series [1] and in series [2] were 28.6 µM and 27.3 µM, respectively.

For the compound `COc1ccc(C=NNc2nc3ccccc3nc2OC)cc1OC` [Compound 10 e, 2-(2-(3,4-Dimethoxybenzylidene)hydrazinyl)-3-methoxyquinoxaline], the IC50 in series [1] is 55.7 µM; in series [2], 50.6 µM.

Turning to `COc1cc(C=NNc2nc3ccccc3nc2OC)cc(OC)c1OC` [Compound 10 f, 2-Methoxy-3-(2-(3,4,5-trimethoxybenzylidene)hydrazinyl)quinoxaline], the IC50 was determined as 56.9 µM in series [1] and 48.8 µM in series [2].

On to `COc1nc2ccccc2nc1NN=Cc1ccc([N+](=O)[O-])cc1` [Compound 10 g, 2-Methoxy-3-(2-(4-nitrobenzylidene)hydrazinyl)quinoxaline], for which the IC50 in series [1] was 13 µM; in series [2], 19.1 µM.

With `COc1nc2ccccc2nc1NN=Cc1ccccc1O` [Compound 10 h, 2-((2-(3-Methoxyquinoxalin-2-yl)hydrazono)methyl)phenol], the IC50 in series [1] came out at 5.56 µM; in series [2], 6.72 µM; against HDAC1 it was 3.54 µM; against HDAC4 it was 3.15 µM; at HDAC6, 7.21 µM. The “Bax” value in the series on Bax came out at 205.4 pg/mL. The “Bcl-2” value with Bcl-2 worked out at 2.673 pg/mL.

For the compound `COc1nc2ccccc2nc1NN=Cc1ccc(N(C)C)cc1` [Compound 10 i, 4-((2-(3-Methoxyquinoxalin-2-yl)hydrazono)methyl)-N,N-dimethylaniline], the IC50 in series [1] was determined as 23 µM; in series [2], 22.7 µM.

With `COc1nc2ccccc2nc1NN=Cc1c(O)ccc2ccccc12` [Compound 11, 1-((2-(3-Methoxyquinoxalin-2-yl)hydrazono)methyl)naphthalen-2-ol], the IC50 in series [1] is 18.5 µM; in series [2], 20.3 µM. Moreover, in series [3], the “cytotoxic (anti-proliferative) activity class” value was “strong (11–20 (strong))”.

As for `COc1cccc2c1C(=O)c1c(O)c3c(c(O)c1C2=O)C[C@@](O)(C(=O)CO)C[C@@H]3O[C@H]1C[C@H](N)[C@H](O)[C@H](C)O1` [Doxorubicin, reference compound], the IC50 in series [1] turned out to be 8.25 µM; in series [2], 9.2 ± 0.65 µM.
